# Test results as given in ChEMBL document CHEMBL5252520, “Inhibition of phospho-MurNAc-pentapeptide translocase (MraY) by nucleoside natural product antibiotics, bacteriophage ϕX174 lysis protein E, and cationic antibacterial peptides” (Bioorg Med Chem, 2016).
# Residues, ends and D or L forms follow the SMILES beside them.
# Experiments:
# [1] = molecular target: T1, Phospho-N-acetylmuramoyl-pentapeptide-transferase (Escherichia coli, UniProt E2QF15); experiment: Inhibition of MraY in Escherichia coli
# T1 sequence (E2QF15 whole entry): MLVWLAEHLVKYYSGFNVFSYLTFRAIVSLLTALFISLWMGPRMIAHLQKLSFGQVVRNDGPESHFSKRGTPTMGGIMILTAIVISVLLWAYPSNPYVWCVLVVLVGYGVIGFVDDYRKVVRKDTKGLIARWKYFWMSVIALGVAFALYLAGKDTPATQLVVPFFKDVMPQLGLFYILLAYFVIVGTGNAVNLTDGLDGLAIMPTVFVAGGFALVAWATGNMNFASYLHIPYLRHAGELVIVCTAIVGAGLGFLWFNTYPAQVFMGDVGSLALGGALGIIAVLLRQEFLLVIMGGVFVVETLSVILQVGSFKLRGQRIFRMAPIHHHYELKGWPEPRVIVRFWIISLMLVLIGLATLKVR
# Pseudomonas aeruginosa [2] = experiment: Antibacterial activity against Pseudomonas aeruginosa H103 assessed as reduction in bacterial growth; type: functional
# Escherichia coli = experiment: Antibacterial activity against Escherichia coli assessed as inhibition of bacterial growth; type: functional
# Pseudomonas aeruginosa [3] = experiment: Antibacterial activity against Pseudomonas aeruginosa H103 assessed as inhibition of bacterial growth; type: functional
# [4] = Inhibition of bacterial MraY; parameters: species or system Bacteria
# Staphylococcus aureus = experiment: Antibacterial activity against Staphylococcus aureus ATCC 29213 assessed as bacterial growth inhibition; type: functional
Structure (SMILES),IC50 [1],MIC (Pseudomonas aeruginosa [2]),MIC (Escherichia coli),MIC (Pseudomonas aeruginosa [3]),IC50 [4],MIC (Staphylococcus aureus)
CC[C@@H](C)[C@H](NC(=O)[C@H](CC(C)C)NC(=O)[C@H](CC(C)C)NC(=O)[C@H](CO)NC(=O)[C@@H]1CCCN1C(=O)[C@H](CC(C)C)NC(=O)[C@H](CC(C)C)NC(=O)[C@H](CC(C)C)NC(=O)[C@H](CO)NC(=O)[C@H](CC(C)C)NC(=O)[C@H](CC(C)C)NC(=O)[C@H](CC(C)C)NC(=O)[C@H](CC(C)C)NC(=O)[C@H](Cc1ccccc1)NC(=O)[C@H](C)NC(=O)[C@H](CC(C)C)NC(=O)[C@@H](NC(=O)[C@H](CC(=O)O)NC(=O)[C@H](Cc1c[nH]c2ccccc12)NC(=O)[C@H](CC(C)C)NC(=O)[C@@H](NC(=O)[C@H](Cc1c[nH]c2ccccc12)NC(=O)[C@H](CCCNC(=N)N)NC(=O)[C@@H](NC(=O)[C@@H](N)CCSC)C(C)C)[C@@H](C)O)[C@@H](C)O)C(=O)N[C@@H](CCSC)C(=O)N[C@@H](Cc1ccccc1)C(=O)N[C@H](C(=O)N1CCC[C@H]1C(=O)N[C@@H](CO)C(=O)N[C@H](C(=O)N[C@@H](Cc1ccccc1)C(=O)N[C@@H](CCCCN)C(=O)N[C@@H](CCCNC(=N)N)C(=O)N1CCC[C@H]1C(=O)N[C@H](C(=O)N[C@@H](CO)C(=O)O)C(C)C)[C@@H](C)O)[C@@H](C)CC,0.8 µM,,,,,
CC[C@H](C)[C@H](NC(=O)[C@H](Cc1c[nH]c2ccccc12)NC(=O)[C@@H](NC(=O)[C@@H](NC(=O)[C@H](CCCNC(=N)N)NC(=O)[C@H](Cc1c[nH]c2ccccc12)NC(=O)[C@H](Cc1c[nH]c2ccccc12)NC(=O)[C@@H](N)CCCNC(=N)N)[C@@H](C)CC)C(C)C)C(=O)N[C@@H](CCCCN)C(=O)N[C@@H](Cc1c[nH]c2ccccc12)C(=O)N[C@@H](Cc1c[nH]c2ccccc12)C(=O)N[C@@H](CCCNC(=N)N)C(=O)O (H-RWWRIVWIKWWR-OH),,31 µg/mL,4 µg/mL,31 µg/mL,40 µM,
CC(C)C[C@H](NC(=O)CNC(=O)[C@H](Cc1c[nH]c2ccccc12)NC(=O)[C@@H](N)CCCNC(=N)N)C(=O)N[C@@H](Cc1c[nH]c2ccccc12)C(=O)O (H-RWGLW-OH),,,,,590 µM,30 µg/mL
